This is an account of results in patent US20090012183A1, “Composition comprising polyphenol” (Conopco, Inc. d/b/a Unilever, priority 2007, published 2009).

Each structure is given as a SMILES string.

The term EC50 denotes the concentration that produces a half-maximal response.

For one assay, the system named is rat aorta. The conditions noted are these: cited from earlier work; for vasorelaxing effect: Chen and Pace Asciak, Gen. Pharmac. 27(2), 363-366 (1996).
Assay [1] deals with 2nd order mesenteric artery side branches. Briefly: Reactivity of isolated arteries: dilator effect during contraction induced by 40 mmol/L K+. On the set-up: species or system Spontaneously Hypertensive Rats (SHR). How it is done:
Segments of 2nd order mesenteric artery side branches were isolated from 14 weeks old male Spontaneously Hypertensive Rats (SHR). Two stainless-steel wires (diameter 40 μm) were inserted in the lumen of the arterial segments, which were then mounted in organ chambers between an isometric force transducer and a displacement device (Danish Myotechnology by J. P. Trading, Denmark). The organ chambers were filled with Krebs-Ringer bicarbonate solution which was maintained at 37° C. and continuously aerated with 95% O2 and 5% CO2. Before the actual experiments started, arterial segments were stretched to their individual optimal lumen diameter for mechanical performance, i.e. the diameter at which maximal contractile responses to noradrenaline ([…]) were obtained. In each experiment four second order mesenteric resistance arterial segments from one animal were mounted in individual organ chambers and studied in parallel. At the start of the experiments, all four arterial preparations were incubated during 20 min with capsaicin (1 μmol/L) to persistently desensitize sensory-motor nerves and to obtain a stable and considerable contractile response to potassium (K^+, 40 mmol/L). During all the experiments superoxide dismutase (SOD, 5 U/ml) was present, to preserve stability of the metabolites. We tested the effects of the 35 different phenolic compounds using a Plackett-Burman screening design. The experiment consisted of 5 separate saturated 8 run Plackett-burman designs. Each design contained a subset of 7 phenolic compounds (Factors): One of the compounds tested was trans-resveratrol (in this case compound 30). […] In this way, the effects of different exposure times to the mixtures (7, 30 and 90 min) on K+-induced contraction, could be evaluated. […] Effects of increasing concentrations of the solvent and of the mixes (0.1 to 100 umol/L) during contractile responses to 40 mmol/L K+, were calculated as % change of the level of pre-contraction. […]

Consider `O=c1c(O)c(-c2ccc(O)c(O)c2)oc2cc(O)cc(O)c12` [quercitin], for which the vasorelaxing effect entry with rat aorta is reported as “vasorelaxing effect”.
With `Oc1ccc(C=Cc2cc(O)cc(O)c2)cc1` [resveratrol], the vasorelaxing effect entry in the assay with rat aorta is “vasorelaxing effect”. In the assay with rat aorta (Fitzpatrick et al, Am. J. physiol. 265, H774-H778, 1993), the “relaxation of the rat aorta” value is listed as “did not relax”.
Regarding `Oc1ccc(C=Cc2cc(O)cc(O)c2)cc1` [trans-resveratrol, 3,5,4′-trihydroxystilbene], in assay [1] (Rattus norvegicus, isolated SHR mesenteric resistance arteries precontracted with 40 mmol/L K+, found by comparing mixtures (Plackett-Burman design), corrected for DMSO solvent, read-out: EC50 of dilation of the arteries), the EC50 is 11.6 µM. Also, the “influence on the dilation of the arteries” value in assay [1] (at a low concentration, comparison of different mixtures) was “significant influence”. The “concentration at which the maximum dilatation was obtained” value in assay [1] (isolated SHR mesenteric resistance arteries precontracted with 40 mmol/L K+, mixtures tested 0.1-100 umol/L) was found to be 100 µM.
